Measurements from US8815778B2, “PH modulation method to detect ligand-receptor binding” (The Texas A&M University System, priority 2008, dated 2014).
Like-named read-outs stand apart in the source and are kept apart here.

Tests used:
[1] = cited from earlier work; for τ0 (fluorescence lifetime): dye concentrations of about 10^−7 M; for φb (quantum yield of photobleaching) / μ (mean number of survived excitation cycles): in water at low irradiances; for μ (mean number of survived excitation cycles): μ calculated from φb
[2] = pH titration of Texas Red DHPE isomers in supported lipid bilayers (fluorescence); type: physicochemical
Protocol: The peak heights from the ortho-conjugated Texas Red® data in FIG. 5 may be used to obtain a titration curve for this isomer. […] To obtain the y-axis, the peak height at pH 3 was set to 1.0, and all other peak heights are relative to this value.
pH Titration and Buffer Preparation. […] These pH values were chosen to locate the pKA value of ortho-Texas Red® DHPE. The pH could be adjusted to the desired value by the dropwise addition of HCl or NaOH. The pH was measured with a standard glass electrode setup. […] Titration curves for the dye molecules in SLBs were obtained by systematically changing the pH of the bulk solution in a stepwise fashion. Fresh buffer was continuously flowed over the surface until no further changes in fluorescence intensity could be observed. […] Fluorescent micrographs of SLBs were captured with a standard epifluorescence microscope setup (Nikon Eclipse E800).
The fluorescence titration curve of the Texas Red® DHPE dye molecules was monitored in SLBs containing two narrow, parallel lines of bilayers with distinct dye chemistries. […] The second line was identical, but contained para-Texas Red® DHPE instead of the ortho isomer. The surrounding lipid matrix was a 1:1:1 mixture of DOPC, DPPC, and cholesterol.
In this case, however, a saturation concentration of IgG (500 nM) was first introduced into the bulk solution. Moreover, all fluorescence measurements as a function of pH were performed in the presence of 500 nM bulk protein concentration to ensure that the surface remained saturated with protein.
Titration Curves for ortho-Texas Red® DHPE. In a first set of experiments, the pH dependent responses of the ortho- and para-conjugated Texas Red® dyes were investigated in supported POPC bilayers with 0.5 mol % biotin-cap-PE. […] Bulk solutions at a given pH value were continuously flowed into the device until the fluorescence intensity remained constant. Fluorescence images at each pH value were then captured (FIG. 15a).
Titration Curve with a Saturated Protein Layer. […] First, two separated bilayer strips were formed as described above. […] All subsequent measurements were made by tuning the solution pH value, but keeping the bulk IgG concentration constant.

[3] = pH modulation assay of avidin and streptavidin on biotin-PE bilayers (turn on / turn off); type: binding; conditions: 1 μM protein
Description: In addition to being able to detect negatively charged proteins, experiments have also been performed showing that our pH modulation assay can detect positively charged proteins. In this case, the sensor works as a “turn off” rather than as a “turn on” sensor. To investigate this, the binding of avidin, which is a positively charged macromolecule, was studied. The conditions were similar to those described above except where explicitly stated. Under all conditions, a saturation concentration of avidin or streptavidin was employed (1 μM). The bilayers each contained 1 mol % biotin-PE and 0.03 mol % ortho-Texas Red® DHPE.
However, upon adding 20 mol % DOPS (a negatively charged lipid) to the membrane, the assay was rerun at pH 9.25. Under these conditions, it detects avidin in a “turn off” mode and streptavidin in a “turn on” mode.

[4] = literature values; cited from earlier work
[5] = biotin/streptavidin binding, literature; cited from earlier work
avidin = avidin (Gallus gallus, UniProt P02701); assay: Homogeneous pH modulation assay in capillary tubes with Texas Red succinimidyl ester conjugated avidin; type: binding; conditions: for fluorescence intensity versus capillary without ligand: 3 μM ortho-Texas Red succinimidyl ester conjugated avidin, PBS pH 7.0
Sequence of avidin (P02701 25-152, species assumed): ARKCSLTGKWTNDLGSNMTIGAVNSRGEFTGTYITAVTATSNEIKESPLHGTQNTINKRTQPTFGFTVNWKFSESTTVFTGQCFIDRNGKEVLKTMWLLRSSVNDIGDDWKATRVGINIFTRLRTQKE
Description: The pH modulation detection assay is amenable monitoring protein-small molecule and protein-protein interactions homogeneously in aqueous solution.
Avidin was labeled with Texas Red® succinimidyl ester as follows: The ortho isomer of Texas Red® succinimidyl ester was separated from the para isomer via thin layer chromatography utilizing silica plates (TLC Silica Gel 60 F254, EMD Chemicals) and 8:92 (methanol:chloroform) solvent. The separated band was removed from the plates with a razor and the ortho-Texas Red® succinimidyl ester was eluted from the silica with the same methanol/chloroform solvent. The dye (21 μg) was dried down with nitrogen in a 2 mL reactive vial containing a magnetic stir bar. To this reaction vial was added 0.5 mL of a 2 mg/mL avidin solution in 1 M sodium bicarbonate. This solution was allowed to stir for two hours at room temperature before being separated in a column containing Bio-Rad BioGel® Fine size purification resin in phosphate buffered saline (PBS, 10 mM potassium phosphate, 150 mM NaCl, 2 mM sodium azide, pH 7.2). This PBS was utilized as the elution buffer as well. The collected Texas-Red® succinimidyl ester-labeled avidin was utilized in the sensing experiments.
The two rectangular capillaries were passivated with a surface coating of bovine serum albumin (BSA). The BSA was then thoroughly rinsed away with phosphate buffered saline (10 mM Na2HPO4, 150 mM NaCl, pH 7.0). Next, a 3 μM solution of ortho-Texas Red® succinimidyl ester conjugated avidin was introduced in PBS into both capillaries. The right capillary additionally contained a 200 μM concentration of biotin (vitamin B7). A line scan across the micrograph is shown on the right. […] It should be noted that avidin is a positively charged protein and the biotin is […] in solution near pH 7.0. Therefore, the local pH near the protein surface is lowered when the small molecule binds.
As a control, the same set of experiments was run as in FIG. 38. However, this time the avidin was conjugated with para-Texas Red® succinimidyl ester (FIG. 39). […]

[6] = pH 8.2, POPC, 1 mol % biotin-PE, 0.03 mol % ortho-Texas Red DHPE
[7] = pH 9.25, 20 mol % DOPS added to the membrane

Molecule	τ0 (fluorescence lifetime) [1] [ns]	φb (quantum yield of photobleaching) [1]	μ (mean number of survived excitation cycles) [1]	also measured
CCNc1cc2oc(=O)cc(C(F)(F)F)c2cc1C [Coumarin 307]	4.5	1.5 × 10^−4	6 500	σ01 (λ) ([1]; 397 nm): 5.4 (397 nm) 10^−17 cm^2
ortho-sulforhodamine 101-DHPE [ortho-Texas Red® DHPE]	–	–	–	shift of apparent pKA to a more basic value ([2]; 20 mol % DOPS added to the membranes, with respect to FIG. 15b): 0.44 pH units; fluorescence intensity of the band as a function of bulk pH ([2]; POPC bilayers with 0.5 mol % biotin-cap-PE, pH 10.2 to 4.0): showed higher intensity at more acidic pH values; apparent pKA ([2]; SLB containing 0.5 mol % biotin-cap-PE on glass, pH 10.2 to 4.0, ortho/para ratio, FIG. 15b): 7.8±0.1; apparent shift of titration curve midpoint ([2]; saturated anti-biotin IgG layer (500 nM) versus no bound proteins): ~0.35 pH units; pKA of the dye ([2]; supported phospholipid bilayer, pH 3 to 11, FIG. 6): 7.8
Cc1cc(=O)[nH]c2cc(N)ccc12 [Carbostyril 124]	5.0	1.4 × 10^−3	700	σ01 (λ) ([1]; 335 nm): 6.3 (335 nm) 10^−17 cm^2
Cc1cc(=O)oc2cc(N)ccc12 [Coumarin 120]	5.0	3.4 × 10^−4	3 000	σ01 (λ) ([1]; 365 nm): 3.9 (365 nm) 10^−17 cm^2
Cc1cc(=O)oc2c3c4c(cc12)CCCN4CCC3 [Coumarin 102]	5.5	4.3 × 10^−4	2 300	σ01 (λ) ([1]; 397 nm): 7.0 (397 nm) 10^−17 cm^2
streptavidin: negatively charged biotin-binding protein	–	–	–	detection by the pH modulation assay [3, 6]: does not detect; detection by the pH modulation assay [3, 7]: turn on; isoelectric point (pI) [4]: 6.4; Kd [5]: ~1 pM
biotinylated bovine serum albumin: biotinylated bovine serum albumin (BSA)	–	–	–	fluorescence intensity versus capillary without ligand (avidin; 500 μM biotinylated BSA): approximately a factor of eight higher
Rhodamine 123	4.0	6.4 × 10^−7	1 570 000	σ01 (λ) ([1]; 515 nm): 12.3 (515 nm) 10^−17 cm^2
CN(C)c1ccc2c(-c3ccccc3C(=O)[O-])c3ccc(N(C)C)cc3[o+]c2c1 [TMR]	2.3	3.3 × 10^−7	3 070 000	σ01 (λ) ([1]; 515 nm): 13.3 (515 nm) 10^−17 cm^2
Coumarin 39	5.6	1.2 × 10^−3	800	–
avidin: positively charged biotin-binding protein	–	–	–	detection by the pH modulation assay [3, 6]: turn off mode; detection by the pH modulation assay [3, 7]: turn off; isoelectric point (pI) [4]: 10.4
O=C(O)CCCC[C@@H]1SC[C@@H]2NC(=O)N[C@@H]21 [biotin]	–	–	–	fluorescence intensity versus capillary without ligand (avidin; 200 μM biotin): approximately a factor of five higher; fluorescence difference between the two capillary tubes (avidin; avidin conjugated with para-Texas Red succinimidyl ester (control), saturation biotin): little if any fluorescence difference
